Common to all, as to experiment: relative viability (nuclei count vs DMSO), 5 days (fraction); higher = more cells survive
Compound in experiment [1]: O=C(Nc1cccc(C(F)(F)F)c1)Nc1cc(S(=O)(=O)NC2CC2)ccc1-c1ccsc1 [AGI-6780] + COc1cccc2cc(-c3nc([C@H]4CC[C@H](C(=O)O)CC4)n4ncnc(N)c34)[nH]c12 [OSI-027] (partner 0.5 µM)
Put shortly: (§1)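 For relative viability, nuclei counts in treated wells were divided by those in vehicle wells. Lung cancer cell lines had been pin-tool dosed in 1536-well plates the day after seeding and cultured for 5 days, then fixed and stained in one step (final 0.05% Triton X-100, 1% formaldehyde, 1 ug/ml Hoechst) and imaged at 4×. Doses were one drug alone or a fixed anchor-drug dose plus five library-drug doses (not always all listed) in √10 steps, and values are duplicate-plate medians.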

Compound in experiment [2]: O=C(Nc1cccc(C(F)(F)F)c1)Nc1cc(S(=O)(=O)NC2CC2)ccc1-c1ccsc1 [AGI-6780] + CC(=O)Nc1cccc(-n2c(=O)n(C3CC3)c(=O)c3c(Nc4ccc(I)cc4F)n(C)c(=O)c(C)c32)c1 [Trametinib] (partner 0.02 µM)
Put shortly:
as §1

Compound in experiment [3]: O=C(Nc1cccc(C(F)(F)F)c1)Nc1cc(S(=O)(=O)NC2CC2)ccc1-c1ccsc1 [AGI-6780] + C[C@]1(O)C[C@@H](c2nc(-c3ccc4ccc(-c5ccccc5)nc4c3)c3c(N)nccn32)C1 [Linsitinib] (partner 1 µM)
Put shortly:
as §1

Compound in experiment [4]: O=C(Nc1cccc(C(F)(F)F)c1)Nc1cc(S(=O)(=O)NC2CC2)ccc1-c1ccsc1 [AGI-6780] + CS(=O)(=O)CCNCc1ccc(-c2ccc3ncnc(Nc4ccc(OCc5cccc(F)c5)c(Cl)c4)c3c2)o1 [Lapatinib] (partner 2 µM)
In outline:
as §1

Take NCI-H2087: the relative viability in experiment [1] (first compound 0.08 µM) amounted to 0.866; in experiment [1] (first compound 0.253 µM) it was 0.564; in experiment [1] (first compound 0.8 µM), 0.608; in experiment [1] (first compound 2.53 µM), 0.405; in experiment [1] (first compound 8 µM), 0.626; in experiment [2] (first compound 0.08 µM) it was 0.253. Besides, the relative viability in experiment [2] (first compound 0.253 µM) is 0.183; in experiment [2] (first compound 0.8 µM), 0.218; in experiment [2] (first compound 2.53 µM), 0.213; in experiment [2] (first compound 8 µM) it was 0.194; in experiment [3] (first compound 0.08 µM), 1.06; in experiment [3] (first compound 0.253 µM), 0.891. In addition, the relative viability in experiment [3] (first compound 0.8 µM) is 0.85; in experiment [3] (first compound 2.53 µM), 0.984; in experiment [3] (first compound 8 µM) it was 0.883; in experiment [4] (first compound 0.08 µM) it was 1.04; in experiment [4] (first compound 0.253 µM), 1.05; in experiment [4] (first compound 0.8 µM), 0.926. The relative viability in experiment [4] (first compound 2.53 µM) is 0.976; in experiment [4] (first compound 8 µM) it was 0.98.

As for NCI-H2126, the relative viability turned out to be 0.711 in experiment [1] (first compound 0.08 µM); 0.88 in experiment [1] (first compound 0.253 µM); 0.742 in experiment [1] (first compound 0.8 µM); 0.618 in experiment [1] (first compound 2.53 µM); 0.815 in experiment [1] (first compound 8 µM); 0.613 in experiment [2] (first compound 0.08 µM). Further, the relative viability in experiment [2] (first compound 0.253 µM) amounted to 0.601; in experiment [2] (first compound 0.8 µM), 0.507; in experiment [2] (first compound 2.53 µM), 0.479; in experiment [2] (first compound 8 µM), 0.566; in experiment [3] (first compound 0.08 µM), 0.761; in experiment [3] (first compound 0.253 µM) it was 0.802. Further, the relative viability in experiment [3] (first compound 0.8 µM) is 0.709; in experiment [3] (first compound 2.53 µM), 0.585; in experiment [3] (first compound 8 µM) it was 0.712; in experiment [4] (first compound 0.08 µM), 0.782; in experiment [4] (first compound 0.253 µM) it was 0.798; in experiment [4] (first compound 0.8 µM), 0.73. Moreover, the values for the relative viability in experiment [4] (first compound 2.53 µM) and in experiment [4] (first compound 8 µM) were 0.586 and 0.757, respectively.

As to NCI-H2228, the relative viability in experiment [1] (first compound 0.08 µM) was determined as 0.617; in experiment [1] (first compound 0.253 µM), 0.589; in experiment [1] (first compound 0.8 µM) it was 0.488; in experiment [1] (first compound 2.53 µM) it was 0.367; in experiment [1] (first compound 8 µM), 0.685; in experiment [2] (first compound 0.08 µM), 0.447. Further, the relative viability stood at 0.508 in experiment [2] (first compound 0.253 µM); 0.505 in experiment [2] (first compound 0.8 µM); 0.307 in experiment [2] (first compound 2.53 µM); 0.607 in experiment [2] (first compound 8 µM); 0.8 in experiment [3] (first compound 0.08 µM); 1.07 in experiment [3] (first compound 0.253 µM). For the same cell line, the relative viability was determined as 0.604 in experiment [3] (first compound 0.8 µM); 0.754 in experiment [3] (first compound 2.53 µM); 0.629 in experiment [3] (first compound 8 µM); 1.2 in experiment [4] (first compound 0.08 µM); 1.05 in experiment [4] (first compound 0.253 µM); 0.825 in experiment [4] (first compound 0.8 µM). For the same cell line, the relative viability in experiment [4] (first compound 2.53 µM) was found to be 0.771; in experiment [4] (first compound 8 µM), 1.27.

Regarding NCI-H2347, the relative viability in experiment [1] (first compound 0.08 µM) is 0.403; in experiment [1] (first compound 0.253 µM), 0.491; in experiment [1] (first compound 0.8 µM) it was 0.333; in experiment [1] (first compound 2.53 µM), 0.378; in experiment [1] (first compound 8 µM), 0.507; in experiment [2] (first compound 0.08 µM), 0.276. The relative viability in experiment [2] (first compound 0.253 µM) amounted to 0.289; in experiment [2] (first compound 0.8 µM), 0.278; in experiment [2] (first compound 2.53 µM) it was 0.287; in experiment [2] (first compound 8 µM) it was 0.274; in experiment [3] (first compound 0.08 µM), 1.04; in experiment [3] (first compound 0.253 µM), 0.849. For the same cell line, the relative viability in experiment [3] (first compound 0.8 µM) came out at 0.716; in experiment [3] (first compound 2.53 µM) it was 0.998; in experiment [3] (first compound 8 µM), 1.02; in experiment [4] (first compound 0.08 µM), 0.904; in experiment [4] (first compound 0.253 µM), 0.874; in experiment [4] (first compound 0.8 µM) it was 0.688. Further, the relative viability in experiment [4] (first compound 2.53 µM) amounted to 0.879; in experiment [4] (first compound 8 µM), 0.93.

Regarding NCI-H2405, the relative viability in experiment [1] (first compound 0.08 µM) worked out at 0.671; in experiment [1] (first compound 0.253 µM), 0.651; in experiment [1] (first compound 0.8 µM) it was 0.525; in experiment [1] (first compound 2.53 µM), 0.549; in experiment [1] (first compound 8 µM) it was 0.596; in experiment [2] (first compound 0.253 µM), 0.649. The relative viability in experiment [2] (first compound 0.8 µM) was 0.57; in experiment [2] (first compound 2.53 µM), 0.492; in experiment [2] (first compound 8 µM), 0.583; in experiment [3] (first compound 0.08 µM), 0.931; in experiment [3] (first compound 0.253 µM) it was 0.933; in experiment [3] (first compound 0.8 µM) it was 0.687. Moreover, the relative viability in experiment [3] (first compound 8 µM) is 0.845; in experiment [4] (first compound 0.08 µM) it was 1.05; in experiment [4] (first compound 0.253 µM) it was 1.08; in experiment [4] (first compound 0.8 µM) it was 0.938; in experiment [4] (first compound 8 µM) it was 1.1.

With NCI-H3122, the relative viability in experiment [1] (first compound 0.08 µM) came to 0.998; in experiment [1] (first compound 0.253 µM), 0.913; in experiment [1] (first compound 0.8 µM) it was 1.08; in experiment [1] (first compound 2.53 µM) it was 0.727; in experiment [1] (first compound 8 µM), 1.01; in experiment [2] (first compound 0.08 µM), 0.212. Moreover, the relative viability worked out at 0.261 in experiment [2] (first compound 0.253 µM); 0.239 in experiment [2] (first compound 0.8 µM); 0.208 in experiment [2] (first compound 2.53 µM); 0.329 in experiment [2] (first compound 8 µM); 1.03 in experiment [3] (first compound 0.08 µM); 0.982 in experiment [3] (first compound 0.253 µM). The relative viability in experiment [3] (first compound 0.8 µM) is 1.01; in experiment [3] (first compound 2.53 µM) it was 1.08; in experiment [3] (first compound 8 µM) it was 1.04; in experiment [4] (first compound 0.08 µM) it was 1.02; in experiment [4] (first compound 0.253 µM), 0.987; in experiment [4] (first compound 0.8 µM), 1.09. Further, the relative viability in experiment [4] (first compound 2.53 µM) was determined as 1.02; in experiment [4] (first compound 8 µM), 1.08.

The record behind these values is the supplement of paper PMC10307832.
